Results as given in PubChem BioAssay (NCI).
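GI50 is the concentration that inhibits growth by half. Definition used: TGI = concentration required for complete inhibition of growth.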

Assays:
Assay in all cases: growth of human tumour cells (NCI), 384-well format
NCI-H23 lung = system: NCI-H23 lung
SNB-19 CNS = system: SNB-19 CNS
MDA-MB-231 breast = system: MDA-MB-231 breast
786-0 renal = system: 786-0 renal
SNB-75 CNS = system: SNB-75 CNS
NCI-H522 lung = system: NCI-H522 lung
HCC-2998 colon = system: HCC-2998 colon
SW-620 colon = system: SW-620 colon
KM12 colon = system: KM12 colon
CAKI-1 renal = system: CAKI-1 renal
SK-MEL-5 melanoma = system: SK-MEL-5 melanoma
SK-MEL-28 melanoma = system: SK-MEL-28 melanoma
PC-3 prostate = system: PC-3 prostate
MCF7 breast = system: MCF7 breast
NCI-H460 NSCLC = system: NCI-H460 NSCLC
NCI-H322M lung = system: NCI-H322M lung
COLO 205 colon = system: COLO 205 colon
SF-539 CNS = system: SF-539 CNS
HCT-15 colon = system: HCT-15 colon
OVCAR-4 ovarian = system: OVCAR-4 ovarian
HOP-62 NSCLC = system: HOP-62 NSCLC
NCI-H226 lung = system: NCI-H226 lung
SN12C renal = system: SN12C renal
UACC-257 melanoma = system: UACC-257 melanoma
OVCAR-8 ovarian = system: OVCAR-8 ovarian
U251 glioblastoma = system: U251 glioblastoma
SF-268 CNS = system: SF-268 CNS
SF-295 CNS = system: SF-295 CNS
SR leukemia = system: SR leukemia
UACC-62 melanoma = system: UACC-62 melanoma
T-47D breast = system: T-47D breast
DU-145 prostate = system: DU-145 prostate
M14 melanoma = system: M14 melanoma
SK-MEL-2 melanoma = system: SK-MEL-2 melanoma
RPMI-8226 leukemia = system: RPMI-8226 leukemia
OVCAR-3 ovarian = system: OVCAR-3 ovarian
HT29 colon = system: HT29 colon
TK-10 renal = system: TK-10 renal
A549 NSCLC = system: A549 NSCLC
HS 578T breast = system: HS 578T breast
SK-OV-3 ovarian = system: SK-OV-3 ovarian
OVCAR-5 ovarian = system: OVCAR-5 ovarian
HOP-92 NSCLC = system: HOP-92 NSCLC
BT-549 breast = system: BT-549 breast
MALME-3M melanoma = system: MALME-3M melanoma
A498 renal = system: A498 renal
EKVX NSCLC = system: EKVX NSCLC
RXF 393 renal = system: RXF 393 renal
IGROV1 ovarian = system: IGROV1 ovarian
HL-60(TB) leukemia = system: HL-60(TB) leukemia
MDA-MB-468 breast = system: MDA-MB-468 breast
MDA-MB-435 melanoma = system: MDA-MB-435 melanoma
NCI/ADR-RES ovarian = system: NCI/ADR-RES ovarian
ACHN renal = system: ACHN renal
MOLT-4 leukemia = system: MOLT-4 leukemia

## CC(C)n1nc(-c2cc3cc(O)ccc3[nH]2)c2c(N)ncnc21
NCI-H23 lung
  GI50: 952 nM
  TGI: 3220 nM
SNB-19 CNS
  GI50: 2870 nM
  TGI: 12100 nM
MDA-MB-231 breast
  GI50: 338 nM
  TGI: 3410 nM
786-0 renal
  GI50: 1230 nM
  TGI: 3940 nM
SNB-75 CNS
  GI50: 265 nM
  TGI: 1560 nM
NCI-H522 lung
  GI50: 104 nM
  TGI: 701 nM
HCC-2998 colon
  GI50: 1380 nM
  TGI: 10500 nM
SW-620 colon
  GI50: 4200 nM
  TGI: 14600 nM
KM12 colon
  GI50: 448 nM
  TGI: 6430 nM
CAKI-1 renal
  GI50: 328 nM
  TGI: 1810 nM
SK-MEL-5 melanoma
  GI50: 246 nM
  TGI: 1060 nM
SK-MEL-28 melanoma
  GI50: 315 nM
  TGI: 1020 nM
PC-3 prostate
  GI50: 241 nM
  TGI: 1250 nM
MCF7 breast
  GI50: 229 nM
  TGI: 7960 nM
NCI-H460 NSCLC
  GI50: 147 nM
  TGI: 1400 nM
NCI-H322M lung
  GI50: 391 nM
  TGI: 3200 nM
COLO 205 colon
  GI50: 348 nM
  TGI: 1180 nM
SF-539 CNS
  GI50: 1030 nM
  TGI: 2940 nM
HCT-15 colon
  GI50: 605 nM
  TGI: 11900 nM
OVCAR-4 ovarian
  GI50: 631 nM
  TGI: 2820 nM
HOP-62 NSCLC
  GI50: 395 nM
  TGI: 1950 nM
NCI-H226 lung
  GI50: 374 nM
  TGI: 1290 nM
SN12C renal
  GI50: 382 nM
  TGI: 4190 nM
UACC-257 melanoma
  GI50: 1140 nM
  TGI: 5390 nM
OVCAR-8 ovarian
  GI50: 988 nM
  TGI: 5500 nM
U251 glioblastoma
  GI50: 1890 nM
  TGI: 6010 nM
SF-268 CNS
  GI50: 1840 nM
  TGI: 5930 nM
SF-295 CNS
  GI50: 1010 nM
  TGI: 3800 nM
SR leukemia
  GI50: 285 nM
  TGI: 768 nM
UACC-62 melanoma
  GI50: 507 nM
  TGI: 2080 nM
T-47D breast
  GI50: 107 nM
  TGI: 480 nM
DU-145 prostate
  GI50: 1340 nM
  TGI: 11000 nM
M14 melanoma
  GI50: 354 nM
  TGI: 2010 nM
SK-MEL-2 melanoma
  GI50: 718 nM
  TGI: 1800 nM
RPMI-8226 leukemia
  GI50: 91.6 nM
  TGI: 236 nM
OVCAR-3 ovarian
  GI50: 514 nM
  TGI: 4940 nM
HT29 colon
  GI50: 1180 nM
  TGI: 8430 nM
TK-10 renal
  GI50: 327 nM
  TGI: 1810 nM
A549 NSCLC
  GI50: 415 nM
  TGI: 2370 nM
HS 578T breast
  GI50: 221 nM
  TGI: 808 nM
SK-OV-3 ovarian
  GI50: 208 nM
  TGI: 652 nM
OVCAR-5 ovarian
  GI50: 421 nM
  TGI: 3580 nM
HOP-92 NSCLC
  GI50: 345 nM
  TGI: 1620 nM
BT-549 breast
  GI50: 600 nM
  TGI: 2310 nM
MALME-3M melanoma
  GI50: 41.6 nM
  TGI: 271 nM
A498 renal
  GI50: 119 nM
  TGI: 764 nM
EKVX NSCLC
  GI50: 546 nM
  TGI: 3050 nM
RXF 393 renal
  GI50: 372 nM
  TGI: 1610 nM
IGROV1 ovarian
  GI50: 205 nM
  TGI: 642 nM
HL-60(TB) leukemia
  GI50: 1760 nM
  TGI: 3990 nM
MDA-MB-468 breast
  GI50: 201 nM
  TGI: 790 nM
MDA-MB-435 melanoma
  GI50: 714 nM
  TGI: 3300 nM
NCI/ADR-RES ovarian
  GI50: 511 nM
  TGI: 2200 nM
ACHN renal
  GI50: 770 nM
  TGI: 2640 nM
MOLT-4 leukemia
  GI50: 329 nM
  TGI: 1620 nM
